Measured values published in patent publication US5945436A, “Pyridylmethyl nitriles, amides and thioamides useful as fungicides” (Uniroyal Chemical Company, Inc., priority 1997, dated 1999).

Assays:
Erysiphe cichoracearum = test: Powdery mildew of cucumber, systemic root uptake (CMS); assay type: in vivo; details: 45 ml of 250 mg/l, 8 days after inoculation
Method: Compositions containing Compounds Nos. 1-81 were prepared by dissolving 0.24 grams of each of the compounds in 8 ml of acetone or other suitable inert solvent. Each of the resultant solutions was treated with 3 drops of TWEEN 20 (ethoxylated ethylene sorbitan monolaurate, a non-ionic surfactant)(I.C.I.), and water was added to form an emulsion. The degree of dilution with water was dictated by the desired concentration of the compound in the composition. The greater the quantity of water added, the lower the concentration of the compound in the composition, reported in milligrams per liter (mg/l) […] Upon reaching these ages, the plants were either treated with 45 ml of 250 mg/l concentration of the compositions of Example 9 or were left untreated. The untreated plants were used as controls. The 45 ml compositions saturated the soil of the treated pots without significant loss through drainage into the saucers below the pots. Twenty-four hours after the treatment with the compositions, both the barley and cucumber plants in all the pots, those treated and those untreated, were inoculated with powdery mildew fungus. This was accomplished by tapping leaves of previously infected barley and cucumber plants over the treated and untreated pots containing the barley and cucumber plants, respectively, to distribute spores of the fungus over the plants tested. […] Intermediate ratings were assigned depending on the degree of disease. […] The results of the powdery mildew disease control of barley are reported under the heading of "BMS". The results for cucumber mildew control are reported under the heading "CMS".

Erysiphe polygoni = test: Powdery mildew on pinto bean, foliar application (ERY POL); assay type: in vivo; details: Erysiphe polygoni, similar procedure as barley (1,000 mg/l), read-out: Percent Reduction of Disease, ERY POL
Method: Compositions containing Compounds Nos. 1-81 were prepared by dissolving 0.24 grams of each of the compounds in 8 ml of acetone or other suitable inert solvent. Each of the resultant solutions was treated with 3 drops of TWEEN 20 (ethoxylated ethylene sorbitan monolaurate, a non-ionic surfactant)(I.C.I.), and water was added to form an emulsion. The degree of dilution with water was dictated by the desired concentration of the compound in the composition. The greater the quantity of water added, the lower the concentration of the compound in the composition, reported in milligrams per liter (mg/l) Ten plants of "Robust" variety barley were planted in each of a plurality of pots. Each pot was then either sprayed with one of the compositions of Example 9, at a composition concentration of 1,000 mg/l, or left unsprayed. For each pot sprayed, one pot was left unsprayed as a control. After the leaves of the sprayed pots were dried, the sprayed pots and the unsprayed control pots were placed in a greenhouse maintained at 21° C. All the pots were then inoculated with barley powdery mildew fungus, Erysiphe graminis. This inoculation was accomplished by distributing spores of the fungus over the leaves of the plants to be tested from plants which had previously been infected with the mildew disease. […] Again, percent control was computed by comparing the treatment scores with the scores of the untreated controls. The results are summarized in Table II under the heading "ERY GRA". Using a similar procedure as described above for the barley, pinto bean plants were prepared, treated and inoculated with the fungus Erysiphe polygoni. The results of this testing are summarized in Table II under the heading "ERY POL".

Pyricularia oryzae = test: whole plant or invertebrate; assay type: in vivo; details: Pyricularia oryzae, in Hordeum vulgare, foliar, 216 h, read-out: Percent Reduction of Disease, PYR ORY, barley, foliar, 1,000 mg/l
Helminthosporium sativum = test: Barley spot blotch, foliar treatment (HEL SAT); assay type: in vivo; details: Helminthosporium, foliar, 216 h, foliar, 1,000 mg/l, read-out: Percent Reduction of Disease, HEL SAT
Method: Compositions containing Compounds Nos. 1-81 were prepared by dissolving 0.24 grams of each of the compounds in 8 ml of acetone or other suitable inert solvent. Each of the resultant solutions was treated with 3 drops of TWEEN 20 (ethoxylated ethylene sorbitan monolaurate, a non-ionic surfactant)(I.C.I.), and water was added to form an emulsion. The degree of dilution with water was dictated by the desired concentration of the compound in the composition. The greater the quantity of water added, the lower the concentration of the compound in the composition, reported in milligrams per liter (mg/l) Ten plants of six day-old Barley (variety "Robust") were planted in each of a plurality of pots. Each pot was then either sprayed with one of the compositions of Example 9, at a concentration of 1,000 mg/l, or left unsprayed. The unsprayed plants were used as controls. An equal number of pots were sprayed and unsprayed. All plants, sprayed and unsprayed, were thereafter inoculated with spores of the blotch fungus Helminthosporium sativum. All inoculated plants were placed in a 99% humidity chamber for 24 hours and then placed in a greenhouse, maintained at a temperature of 21° C., for eight days. […] Percent control was computed and the results are summarized in Table II under the heading "HEL SAT".

[1] = test system: Cercosporidium personatum; test: Fungal germination and growth, treated disc on agar, scored (CER PER); assay type: cell-based; set-up: key: 100: Complete inhibition of germination and growth.; 80: Nearly complete inhibition but some growth.; 50: Partial inhibition of growth or, early complete inhibition but later growth begins.; 20: Some inhibition of growth, but not significant.; 0: No inhibition of growth; details: disc dipped in 500 mg/l, 29° C., numerical score 0-100, spore suspension
Excerpt: Filter paper discs, each 11 mm. in diameter, were dipped in each of the test solutions. The discs were allowed to air dry to drive off the acetone solvent. A number of untreated discs were used as controls. The treated and untreated discs were then placed on agar plates and one of the following fungus species: Septoria nodorum (SEP NOD), Botrytis cinerea (BOT CIN), Fusarium oxysporum (FUS OXY), Pythium ultimum ([…]), Rhizoctonia solani (RHI SOL), Colletotrichum gossypii (COL GOS), and Scierotinia minor (SCL MIN), was added to the center of each disc in the form of a culture plug with the fungus mat in contact with the paper of the test disc. Cercosporidium personatum (CER PER), was added to discs as a spore suspension (20,000 spores/ml) to the disc (two drops of spore suspension per disc), rather than a mycelial culture plug. The plates were then incubated at 29° C. in an oven. In the case of the Cercosporidium personatum (CER PER) fungi, scoring was done on a numerical basis as follows: 100=Complete inhibition of germination and growth. 80=Nearly complete inhibition but some growth. 50=Partial inhibition of growth or, early complete inhibition but later growth begins. 20=Some inhibition of growth, but not significant. 0=No inhibition of growth. The results of all the above tests appear in Table III below under the headings "SEP NOD," "BOT CIN," "FUS OXY," "[…]" "COL GOS" and "CER PER".

Pythium ultimum = test: Fungal growth inhibition, treated disc on agar (PYT ULT); assay type: cell-based; details: Globisporangium ultimum, disc dipped in 500 mg/l, 29° C., read-out: Percent Growth Inhibition, PYT ULT
Method: (§1) The treated and untreated discs were then placed on agar plates and one of the following fungus species: Septoria nodorum (SEP NOD), Botrytis cinerea (BOT CIN), Fusarium oxysporum (FUS OXY), Pythium ultimum (PYT ULT), Rhizoctonia solani (RHI SOL), Colletotrichum gossypii (COL GOS), and Scierotinia minor (SCL MIN), was added to the center of each disc in the form of a culture plug with the fungus mat in contact with the paper of the test disc. Cercosporidium personatum (CER PER), was added to discs as a spore suspension (20,000 spores/ml) to the disc (two drops of spore suspension per disc), rather than a mycelial culture plug. The plates were then incubated at 29° C. in an oven.
(§2) With the exception of the discs containing Cercosporidium personatum, the discs were evaluated by first measuring the radius from the center of the fungus colony on the treated discs and on the untreated discs. Percent growth inhibition of each of the compounds tested was determined as a function of the difference between the radius of the fungus colony on the treated disc versus the radius of the fungus colony on the untreated disc.

Scierotinia minor = test: Fungal growth inhibition, treated disc on agar (SCL MIN); assay type: cell-based; details: disc dipped in 500 mg/l, 29° C., read-out: Percent Growth Inhibition, SCL MIN
Method: as §1, §2

Colletotrichum gossypii = test: Fungal growth inhibition, treated disc on agar (COL GOS); assay type: cell-based; details: Colletotrichum gossypii, disc dipped in 500 mg/l, 29° C., read-out: Percent Growth Inhibition, COL GOS
Method: as §1, §2

| Structure (SMILES) | Percent Reduction of Disease, CMS (Erysiphe cichoracearum) [%] | pest or weed control at 1000 µg/mL (Erysiphe polygoni) [%] | pest or weed control at 1000 µg/mL (Pyricularia oryzae) [%] | pest or weed control at 1000 µg/mL (Helminthosporium sativum) [%] | CER PER inhibition score [1] | inhibition at 500 µg/mL (Pythium ultimum) [%] | inhibition at 500 µg/mL (Scierotinia minor) [%] | inhibition at 500 µg/mL (Colletotrichum gossypii) [%] |
| --- | --- | --- | --- | --- | --- | --- | --- | --- |
| C#CCC(C#N)(CCc1ccc(OC)cc1)c1cccnc1 (stereo not shown) [Compound 38] | 0 | 92 | 17 | 100 | 0 | 100 | 46 | 100 |
| CCCCCCCC(C#N)(CCc1ccccc1)c1cccnc1 (stereo not shown) [Compound 2] | 0 | 100 | 45 | 80 | 100 | 0 | 100 | 60 |
| COCC(C#N)(CCc1ccc(F)cc1)c1cccnc1 (stereo not shown) [Compound 51] | 0 | 85 | 20 | 90 | 100 | 0 | 100 | 100 |
| C=CCC(C#N)(CCc1ccc(OCC)cc1)c1cccnc1 (stereo not shown) [Compound 40] | 0 | 92 | 92 | 100 | 0 | 61 | 100 | 100 |
| CCCC(C#N)(CCc1ccc(OCC)cc1)c1cccnc1 (stereo not shown) [Compound 46] | 0 | 90 | 0 | 100 | 0 | 59 | 100 | 100 |
| CCCC(C#N)(CCc1ccccc1)c1cccnc1 (stereo not shown) [Compound 1] | 0 | 95 | 0 | 65 | 100 | 40 | 100 | 100 |
| CCCCC(C#N)(CCc1ccccc1)c1ccncc1 (stereo not shown) [Compound 26] | 0 | 17 | 0 | 0 | 0 | 0 | 96 | 75 |
| CCCC(C#N)(CCc1ccccc1C(F)(F)F)c1cccnc1 (stereo not shown) [Compound 72] | 80 | 92 | 0 | 83 | 0 | 71 | 100 | 100 |
